Measured values reported in patent US20030232871A1 (priority 2002, published 2003).
“Also recorded” adds a separate entry of the source.

Assays:
[1] = Moisture sorption (Dynamic Vapor Water Sorption analyzer); type: physicochemical; details: 25° C.; for hygroscopicity compared with Form A: up to about 80% RH
Method: Moisture sorption data were collected at 25° C. from 0% to 80% RH using a Surface Measurement Systems Dynamic Vapor Water Sorption analyzer. The equilibrium window was for a dm/dT of 0.0003 or a maximum time of 120 minutes.

[2] = True density by helium pycnometry; type: physicochemical
[3] = Thermodynamic parameters from eutectic melting data (ΔG−T and ΔG/T−1/T plots); type: physicochemical; details: for Tt (transition temperature): LT form to HT = Form A, calculated as Tt=ΔH/ΔS; for ΔH / ΔS: transition of low temperature form (LT) to HT = Form A, derived from eutectic melting data
Method: Based on the Heat of Transition Rule both Forms B and E are believed to be enantiotropically related to Form A, meaning there is a change in the stability relationship between the forms around a transition temperature Tt. Determination of Tt for Forms B and E with respect to Form A was performed by the use of eutectic melting data. Eutectics were formed between a reference compound (RC) and each of Forms A, B and E of parecoxib sodium. Subsequently heat of fusion data were used to derive the free energy difference between the crystal forms at the eutectic temperature (equation I): xej(Gj-Gi)Tei=Δ[…])]} (equation I) wherein xej and xei are the mole fraction of crystal forms j and i respectively in the eutectic; (Gj-Gi) is the free energy difference between crystal forms i and j at Tei; ΔHmej and ΔHmei are the enthalpy of eutectic melting of crystal forms j and i respectively; Tei and Tej are the temperatures of eutectic melting of crystal forms i and j respectively; ΔCpij is the heat capacity change across the eutectic melt; and R is the ideal gas constant. […] By definition, the free energy difference between crystal forms is zero at the transition temperature. The transition temperature given in Table 5 above was calculated according to equation II: Tt=ΔH/ΔS (equation II)

[4] = Solution calorimetry (heat of solution); type: physicochemical; details: LT form / Form A pair
COX-1 = COX-1 (Homo sapiens, UniProt P23219); details: background statement; cited from earlier work
Chain of COX-1 (P23219 24-599): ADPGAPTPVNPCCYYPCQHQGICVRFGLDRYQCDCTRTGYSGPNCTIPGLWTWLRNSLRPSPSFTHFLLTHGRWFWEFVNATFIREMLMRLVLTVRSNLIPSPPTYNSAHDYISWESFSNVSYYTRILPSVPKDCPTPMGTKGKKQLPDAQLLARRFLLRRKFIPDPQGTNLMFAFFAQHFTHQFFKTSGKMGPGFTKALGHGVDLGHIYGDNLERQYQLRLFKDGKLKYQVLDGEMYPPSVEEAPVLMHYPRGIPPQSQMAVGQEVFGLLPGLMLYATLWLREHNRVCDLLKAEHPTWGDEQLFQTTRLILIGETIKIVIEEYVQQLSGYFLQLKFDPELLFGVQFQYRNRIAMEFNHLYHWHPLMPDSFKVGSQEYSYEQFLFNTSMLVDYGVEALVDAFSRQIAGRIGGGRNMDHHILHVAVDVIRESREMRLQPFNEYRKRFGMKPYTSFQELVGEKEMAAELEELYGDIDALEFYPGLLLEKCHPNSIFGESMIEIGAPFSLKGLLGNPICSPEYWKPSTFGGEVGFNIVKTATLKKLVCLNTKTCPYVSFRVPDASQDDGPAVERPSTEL

SMILES | moisture sorbed ([1]; 0-60% RH range) | behaviour above 60% RH ([1]; above 60% RH) | true density [2] | hygroscopicity compared with Form A [1] | Tt (transition temperature) [3] | ΔH [3] | ΔS [3] | ΔH from heat of solution data [4] | in vitro inhibitory activity against COX-1 (COX-1)
CCC(=O)[N-]S(=O)(=O)c1ccc(-c2c(-c3ccccc3)noc2C)cc1.[Na+] [Form A, parecoxib sodium] | less than 1% | deliquesced; also recorded: greater tendency to sorb water and even to deliquesce | 1.34 ± 0.01 g/mL |  |  |  |  |  | 
CCC(=O)[N-]S(=O)(=O)c1ccc(-c2c(-c3ccccc3)noc2C)cc1.[Na+] [Form B, parecoxib sodium] |  |  | 1.46 ± 0.01 g/mL | less hygroscopic than Form A | 163.3 °C | 16.63 kJ/mol | 38.1 J/mole/K | 15.34 kJ/mol | 
CCC(=O)[N-]S(=O)(=O)c1ccc(-c2c(-c3ccccc3)noc2C)cc1.[Na+] [Form E, parecoxib sodium] |  |  | 1.42 ± 0.01 g/mL | less hygroscopic than Form A | 163.9 °C | 17.15 kJ/mol | 39.2 J/mole/K | 17.94 kJ/mol | 
CCC(=O)NS(=O)(=O)c1ccc(-c2c(-c3ccccc3)noc2C)cc1 [Parecoxib] |  |  |  |  |  |  |  |  | weak
Cc1onc(-c2ccccc2)c1-c1ccc(S(N)(=O)=O)cc1 [valdecoxib] |  |  |  |  |  |  |  |  | weak
